Reference: publication PMC10254649, “Design, Synthesis, and Biological Evaluation of Potent and Selective Inhibitors of Ataxia Telangiectasia Mutated and Rad3-Related (ATR) Kinase for the Efficient Treatment of Cancer” (Molecules, 2023)
“And” between values parts separate entries of the source, which are not always exact repeats. Identical values can stand only once.

Legend:
ATR = ATR (Homo sapiens, UniProt Q13535); experiment: In vitro inhibitory activity against the ATR enzyme; format: biochemical; conditions: mean ± SD of two independent experiments; read-out: ATR IC50 ± SD
NCI-H23 cells = experiment: CCK-8 cell proliferation assay, NCI-H23; format: cell-based; conditions: Homo sapiens, CCK-8, 72 h, ATM-deficient cell line, three independent experiments, read-out: IC50 ± SD, NCI-H23
Description: (§1) A549, HCT116, NCI-H23, and LoVo cells were purchased from the Cell Resources Center of Shanghai Academy of Life Sciences, Shanghai, China. A549 cells were cultured in McCoy’s5A medium supplemented with 10% FBS (KeyGEN Biotech, Nanjing, China) and 1% penicillin/streptomycin (Gibco, 15070-063). HCT116 cells were cultured in IMDM medium supplemented with 10% FBS (KeyGEN Biotech, Nanjing, China) and 1% penicillin/streptomycin (Gibco, 15070-063). NCI-H23 cells were cultured in RPMI 1640 medium supplemented with 10% FBS (KeyGEN Biotech, Nanjing, China) and 1% penicillin/streptomycin (Gibco, 15070-063). LoVo cells were cultured in F12K medium supplemented with 10% FBS (KeyGEN Biotech, Nanjing, China) and 1% penicillin/streptomycin (Gibco, 15070-063). All cells were cultured in an incubator at 37 °C under a 5% CO2 atmosphere.
(§2) For the assay, 3000/well cells were planted into 96-well plates for 24 h and then treated with the indicated doses of drugs or controls for 72 h. Following the manufacturer’s instructions, cell proliferation/survival was measured using the CCK-8 (KeyGEN Biotech, Nanjing, China) assay and plotted via GraphPad 8.0.

HCT116 cells = experiment: CCK-8 cell proliferation assay, HCT116; format: cell-based; conditions: Homo sapiens, HCT-116; CCK-8, 72 h, ATM-normal cell line, three independent experiments; read-out: IC50 ± SD, HCT116
Description: as §1, §2

LoVo cells = experiment: CCK-8 cell proliferation assay, LoVo; format: cell-based; conditions: Homo sapiens, CCK-8, 72 h, ATM-deficient cell line, three independent experiments, read-out: IC50 ± SD, LoVo
Description: as §1, §2

A549 cells = experiment: CCK-8 cell proliferation assay, A549; format: cell-based; conditions: Homo sapiens, CCK-8, 72 h, ATM-normal cell line, three independent experiments, read-out: IC50 ± SD, A549
Description: as §1, §2

LoVo xenografts = experiment: LoVo tumor xenograft mouse model, antitumor efficacy and tolerability; format: in vivo
Description: Balb/c nude mice (18–22 g, female, 4 weeks old) were purchased from Hangzhou Medical College (Hangzhou, China). All mice were inoculated subcutaneously in the right flank with 5 × 10^6 LoVo cells to initiate tumor growth. When the mean tumor volume reached approximately 100 mm^3, all mice were randomly divided into 8 groups (n = 5 per group) based on body weight and volume. […] Cisplatin was administered twice a week at the indicated doses. Tumor size and animal weight were measured every 3 days. Tumor volume was calculated as tumor volume (cm^3) = (length × width^2)/2. Tumor inhibition rate (%) = (1 − mean tumor weight in the treatment group/mean tumor weight in the control group) × 100%. The results were obtained from 5 test mice (mean ± SD) and calculated using GraphPad 8.0 software.

Chain of ATR (Q13535 whole entry): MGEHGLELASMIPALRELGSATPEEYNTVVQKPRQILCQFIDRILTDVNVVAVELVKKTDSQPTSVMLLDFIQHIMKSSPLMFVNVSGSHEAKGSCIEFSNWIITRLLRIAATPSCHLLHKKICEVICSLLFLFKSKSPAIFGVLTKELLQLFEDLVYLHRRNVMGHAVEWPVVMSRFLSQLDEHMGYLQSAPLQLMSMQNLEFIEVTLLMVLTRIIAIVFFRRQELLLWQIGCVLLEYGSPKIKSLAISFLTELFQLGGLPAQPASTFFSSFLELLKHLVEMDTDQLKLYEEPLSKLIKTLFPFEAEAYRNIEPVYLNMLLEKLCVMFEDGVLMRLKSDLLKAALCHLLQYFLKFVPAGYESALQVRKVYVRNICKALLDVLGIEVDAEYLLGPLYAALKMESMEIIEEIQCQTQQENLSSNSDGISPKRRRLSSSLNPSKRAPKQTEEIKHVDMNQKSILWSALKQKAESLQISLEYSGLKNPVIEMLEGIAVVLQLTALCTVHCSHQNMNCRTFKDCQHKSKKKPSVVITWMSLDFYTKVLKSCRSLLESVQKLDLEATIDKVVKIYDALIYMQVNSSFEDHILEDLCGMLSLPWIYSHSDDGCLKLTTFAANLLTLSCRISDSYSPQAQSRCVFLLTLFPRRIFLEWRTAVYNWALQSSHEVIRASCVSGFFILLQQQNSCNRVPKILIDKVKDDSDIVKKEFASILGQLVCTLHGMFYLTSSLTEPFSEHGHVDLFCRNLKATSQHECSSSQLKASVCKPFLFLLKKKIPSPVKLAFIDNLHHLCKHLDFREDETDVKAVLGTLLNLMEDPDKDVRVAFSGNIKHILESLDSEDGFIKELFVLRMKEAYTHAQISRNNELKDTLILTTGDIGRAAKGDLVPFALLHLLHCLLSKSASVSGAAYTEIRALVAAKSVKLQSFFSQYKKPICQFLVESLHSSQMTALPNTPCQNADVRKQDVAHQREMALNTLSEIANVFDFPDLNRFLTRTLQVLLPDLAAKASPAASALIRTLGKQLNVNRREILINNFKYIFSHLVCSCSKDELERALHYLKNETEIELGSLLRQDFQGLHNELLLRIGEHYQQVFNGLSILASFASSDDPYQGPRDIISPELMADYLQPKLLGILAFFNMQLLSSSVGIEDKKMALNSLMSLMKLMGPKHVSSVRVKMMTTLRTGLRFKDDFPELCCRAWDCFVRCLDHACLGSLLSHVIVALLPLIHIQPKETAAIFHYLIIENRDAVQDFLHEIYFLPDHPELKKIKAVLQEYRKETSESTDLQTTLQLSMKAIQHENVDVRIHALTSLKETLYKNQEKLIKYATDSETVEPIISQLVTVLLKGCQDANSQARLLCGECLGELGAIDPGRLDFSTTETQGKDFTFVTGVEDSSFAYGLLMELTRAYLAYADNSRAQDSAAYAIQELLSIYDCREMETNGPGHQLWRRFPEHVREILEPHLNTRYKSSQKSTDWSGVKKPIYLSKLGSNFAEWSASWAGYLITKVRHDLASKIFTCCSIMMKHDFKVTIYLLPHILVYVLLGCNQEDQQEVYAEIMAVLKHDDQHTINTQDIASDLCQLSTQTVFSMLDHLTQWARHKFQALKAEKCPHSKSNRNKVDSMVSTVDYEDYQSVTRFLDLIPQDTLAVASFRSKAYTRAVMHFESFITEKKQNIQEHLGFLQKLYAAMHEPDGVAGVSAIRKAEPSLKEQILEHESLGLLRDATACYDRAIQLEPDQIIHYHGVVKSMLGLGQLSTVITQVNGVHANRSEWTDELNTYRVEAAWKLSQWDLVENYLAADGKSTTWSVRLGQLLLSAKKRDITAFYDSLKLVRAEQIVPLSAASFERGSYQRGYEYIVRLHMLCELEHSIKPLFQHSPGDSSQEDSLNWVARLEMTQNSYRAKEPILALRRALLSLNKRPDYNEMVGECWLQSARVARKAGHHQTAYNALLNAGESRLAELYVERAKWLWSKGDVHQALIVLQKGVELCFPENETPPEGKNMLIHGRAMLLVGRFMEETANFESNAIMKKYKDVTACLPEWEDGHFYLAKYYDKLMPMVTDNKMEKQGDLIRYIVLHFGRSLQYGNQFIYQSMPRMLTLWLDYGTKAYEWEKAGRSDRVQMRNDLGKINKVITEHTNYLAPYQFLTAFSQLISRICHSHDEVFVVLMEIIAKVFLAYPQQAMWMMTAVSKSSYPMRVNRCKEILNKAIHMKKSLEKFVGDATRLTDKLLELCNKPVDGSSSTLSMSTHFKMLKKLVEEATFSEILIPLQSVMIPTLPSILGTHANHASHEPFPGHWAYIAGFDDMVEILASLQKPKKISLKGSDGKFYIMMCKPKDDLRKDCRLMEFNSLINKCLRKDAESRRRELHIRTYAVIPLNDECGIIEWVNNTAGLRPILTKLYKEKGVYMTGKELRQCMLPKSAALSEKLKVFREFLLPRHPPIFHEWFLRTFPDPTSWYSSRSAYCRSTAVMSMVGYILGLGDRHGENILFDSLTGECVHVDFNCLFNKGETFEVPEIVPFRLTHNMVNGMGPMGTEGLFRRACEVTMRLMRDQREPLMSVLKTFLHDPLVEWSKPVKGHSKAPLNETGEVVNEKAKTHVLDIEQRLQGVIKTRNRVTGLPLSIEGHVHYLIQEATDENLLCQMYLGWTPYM
Chain of ATR (Q8WXE1 whole entry partner): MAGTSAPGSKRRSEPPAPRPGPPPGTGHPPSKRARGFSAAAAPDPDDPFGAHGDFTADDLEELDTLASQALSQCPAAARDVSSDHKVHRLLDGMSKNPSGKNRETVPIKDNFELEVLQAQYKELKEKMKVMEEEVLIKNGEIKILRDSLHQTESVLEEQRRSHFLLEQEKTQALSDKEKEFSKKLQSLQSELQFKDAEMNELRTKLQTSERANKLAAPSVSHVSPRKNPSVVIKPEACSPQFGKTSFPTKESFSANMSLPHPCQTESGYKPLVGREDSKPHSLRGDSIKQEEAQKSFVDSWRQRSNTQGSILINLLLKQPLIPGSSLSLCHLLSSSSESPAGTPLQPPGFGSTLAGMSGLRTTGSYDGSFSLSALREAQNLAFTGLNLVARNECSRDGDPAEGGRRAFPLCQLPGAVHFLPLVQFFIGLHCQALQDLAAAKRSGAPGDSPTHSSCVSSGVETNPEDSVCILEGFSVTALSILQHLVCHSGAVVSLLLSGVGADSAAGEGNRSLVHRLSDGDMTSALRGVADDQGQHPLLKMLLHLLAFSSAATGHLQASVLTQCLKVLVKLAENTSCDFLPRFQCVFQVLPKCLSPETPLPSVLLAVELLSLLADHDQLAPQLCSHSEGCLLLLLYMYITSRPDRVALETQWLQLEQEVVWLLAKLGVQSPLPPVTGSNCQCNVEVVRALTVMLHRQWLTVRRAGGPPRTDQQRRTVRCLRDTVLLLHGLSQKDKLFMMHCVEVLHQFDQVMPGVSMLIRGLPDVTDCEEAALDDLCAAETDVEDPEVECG

IC50 (ATR) | melting point [°C] | Structure (SMILES) | also measured
42.5 ± 1.05 nM | – | CCCC(=O)N1CCc2c(nc(-c3ccnc4[nH]ccc34)nc2N2CCOC[C@H]2C)C1 [ZH-3, (R)-1-(4-(3-methylmorpholino)-2-(1H-pyrrolo[2,3-b]pyridin-4-yl)-5,8-dihydropyrido[3,4-d]pyrimidin-7(6H)-yl)butan-1-one] | –
9.23 ± 0.16 nM | 294 to 296 | COCC(=O)N1CCc2c(nc(-c3ccnc4[nH]ccc34)nc2N2CCOC[C@H]2C)C1 [ZH-7, (R)-2-methoxy-1-(4-(3-methylmorpholino)-2-(1H-pyrrolo[2,3-b]pyridinedin-4-yl)-5,8-dihydropyrido[3,4-d]pyrimidin-7(6H)-yl)ethan-1-one] | IC50 (NCI-H23 cells): 6770 ± 430 nM; IC50 (HCT116 cells): 6020 ± 260 nM; IC50 (LoVo cells): 5710 ± 810 nM; IC50 (A549 cells): 25600 ± 1620 nM
214.66 ± 0.04 nM | – | C[C@@H]1COCCN1c1nc(-c2cccc3[nH]ccc23)nc2c1CCN(C(=O)C1CCOCC1)C2 [ZH-13, (R)-(2-(1H-indol-4-yl)-4-(3-methylmorpholino)-5,8-dihydropyrido[3,4-d]pyrimidin-7(6H)-yl)(tetrahydro-2H-pyran-4-yl)methanone] | –
11.3 nM and 10.8 nM | > 250 | C[C@@H]1COCCN1c1nc(-c2ccnc3[nH]ccc23)nc2c1CCN(C(=O)CC#N)C2 [ZH-5, (R)-3-(4-(3-methylmorpholino)-2-(1H-pyrrolo[2,3-b]pyridinedin-4-yl)-5,8-dihydropyrido[3,4-d]pyrimidin-7(6H)-yl)-3-oxopropanenitrile] | –
16 ± 1.08 nM | 222 to 224 | C[C@@H]1COCCN1c1nc(-c2ccnc3[nH]ccc23)nc2c1CCN(C(=O)C1CC(=O)C1)C2 [ZH-9, (R)-3-(4-(3-methylmorpholino)-2-(1H-pyrrolo[2,3-b]pyridinedin-4-yl)-5,6,7,8-tetrahydropyrido[3,4-d]pyrimidine-7-carbonyl)cyclobutan-1-one] | –
14.9 ± 0.29 nM | – | CCNC(=O)N1CCc2c(nc(-c3cccc4[nH]ccc34)nc2N2CCOC[C@H]2C)C1 [ZH-14, (R)-N-ethyl-2-(1H-indol-4-yl)-4-(3-methylmorpholino)-5,8-dihydropyrido[3,4-d]pyrimidine-7(6H)-carboxamide] | –
11.4 ± 0.25 nM | – | CCNC(=O)N1CCc2c(nc(-c3ccnc4[nH]ccc34)nc2N2CCOC[C@H]2C)C1 [ZH-11, (R)-N-ethyl-4-(3-methylmorpholino)-2-(1H-pyrrolo[2,3-b]pyridin-4-yl)-5,8-dihydropyrido[3,4-d]pyrimidine-7(6H)-carboxamide] | –
53.3 ± 1.08 nM | – | CCS(=O)(=O)N1CCc2c(nc(-c3ccnc4[nH]ccc34)nc2N2CCOC[C@H]2C)C1 [ZH-1, (R)-4-(7-(ethylsulfonyl)-2-(1H-pyrrolo[2,3-b]pyridin-4-yl)-5,6,7,8-tetrahydropyrido[3,4-d]pyrimidin-4-yl)-3-methylmorpholine] | –
– | – | N.N.[Cl][Pt][Cl] [cisplatin, reference compound] | tumor growth inhibition (TGI) (LoVo xenografts; cisplatin 6 mg/kg twice a week, alone): 26.1%
– | – | C[C@@H]1COCCN1c1cc(C2([S@](C)(=N)=O)CC2)nc(-c2cc[nH]c3nccc2-3)n1 [AZD6738, ceralasertib, reference compound] | IC50 (NCI-H23 cells): 500 ± 60 nM; tumor growth inhibition (TGI) (LoVo xenografts; 25 mg/kg twice daily, days 1-18, single agent, AZD6738 orally, ZH-12 intraperitoneally): 42.5%; IC50 (HCT116 cells): 4320 ± 160 nM; IC50 (LoVo cells): 410 ± 10 nM; IC50 (A549 cells): 6600 ± 240 nM
27.5 nM and 11.9 nM | 240 to 242 | C[C@@H]1COCCN1c1nc(-c2ccnc3[nH]ccc23)nc2c1CCN(C(=O)C1CCC(=O)CC1)C2 [ZH-10, (R)-4-(4-(3-methylmorpholino)-2-(1H-pyrrolo[2,3-b]pyridinedin-4-yl)-5,6,7,8-tetrahydropyrido[3,4-d]pyrimidine-7-carbonyl)cyclohexan-1-one] | –
27.5 ± 1.04 nM | – | C[C@@H]1COCCN1c1nc(-c2ccnc3[nH]ccc23)nc2c1CCN(C(=O)C1CCOCC1)C2 [ZH-8, (R)-(4-(3-methylmorpholino)-2-(1H-pyrrolo[2,3-b]pyridin-4-yl)-5,8-dihydropyrido[3,4-d]pyrimidin-7(6H)-yl)(tetrahydro-2H-pyran-4-yl)methanone] | –
34.03 ± 0.27 nM | 174 to 176 | C[C@@H]1COCCN1c1nc(-c2ccnc3[nH]ccc23)nc2c1CCN(C(=O)CO)C2 [ZH-6, (R)-2-hydroxy-1-(4-(3-methylmorpholino)-2-(1H-pyrrolo[2,3-b]pyridinedin-4-yl)-5,8-dihydropyrido[3,4-d]pyrimidin-7(6H)-yl)ethan-1-one] | –
41.6 ± 1.38 nM | – | CCC(=O)N1CCc2c(nc(-c3ccnc4[nH]ccc34)nc2N2CCOC[C@H]2C)C1 [ZH-2, (R)-1-(4-(3-methylmorpholino)-2-(1H-pyrrolo[2,3-b]pyridin-4-yl)-5,8-dihydropyrido[3,4-d]pyrimidin-7(6H)-yl)propan-1-one] | –
7.31 ± 0.16 nM | – | CC(C)CC(=O)N1CCc2c(nc(-c3ccnc4[nH]ccc34)nc2N2CCOC[C@H]2C)C1 [ZH-4, (R)-3-methyl-1-(4-(3-methylmorpholino)-2-(1H-pyrrolo[2,3-b]pyridin-4-yl)-5,8-dihydropyrido[3,4-d]pyrimidin-7(6H)-yl)butan-1-one] | IC50 (NCI-H23 cells): 1740 ± 50 nM; IC50 (HCT116 cells): 5170 ± 580 nM; IC50 (LoVo cells): 18000 ± 1690 nM; IC50 (A549 cells): 20800 ± 1210 nM
